Data as given in patent US8476301B2, “Pyrrolidin-3-ylacetic acid derivative” (Eisai R&D Management Co., Ltd., priority 2011, dated 2013).

Target: T1, CX3CR1 (Homo sapiens, UniProt P49238)
T1 construct: expressed in transfected cells; host or cells: B300 cells
T1 sequence (P49238 1-355): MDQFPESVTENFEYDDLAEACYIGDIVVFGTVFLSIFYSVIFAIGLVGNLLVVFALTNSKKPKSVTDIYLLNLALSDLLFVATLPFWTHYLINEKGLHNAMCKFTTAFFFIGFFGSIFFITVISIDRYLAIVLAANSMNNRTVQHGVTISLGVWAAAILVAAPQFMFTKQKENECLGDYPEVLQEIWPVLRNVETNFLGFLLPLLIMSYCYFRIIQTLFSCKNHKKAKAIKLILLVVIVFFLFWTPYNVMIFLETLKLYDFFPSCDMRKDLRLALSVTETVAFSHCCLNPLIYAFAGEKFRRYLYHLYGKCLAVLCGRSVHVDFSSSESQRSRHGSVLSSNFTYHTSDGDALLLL
Experiment: Inhibition of cell migration in fractalkine-induced chemotaxis assay
Assay type: cell-based
Conditions: CX3CR1-expressing B300 cells preincubated with test compound 30 minutes; fractalkine 0.3 nM in lower wells; Transwell, 3.5 hours at 37° C.; migrated cells counted with CellTiter; read-out: IC50 (nM), 50% inhibitory concentration on fractalkine-induced cell migration
Procedure: The inhibitory effects of the example compounds on fractalkine-induced cell migration were examined using CX3CR1-transfected B300 cells
After equilibrating the Transwell plate (24-well clusters, pore size: 5 μm, manufactured by Corning Incorporated), a fractalkine solution (0.3 nM, manufactured by R&D Systems, Inc.) was added to the lower wells. CX3CR1-expressing B300 cells which were preincubated with the test compound (0.001, 0.003, 0.01 or 0.03 μM) for 30 minutes were placed in the upper layer wells, followed by incubation under the condition of 5% CO2 for 3.5 hours at 37° C. The number of cells migrated to the lower wells was evaluated using CellTiter (manufactured by Promega Corporation).
The inhibitory rate of the test compound on fractalkine-induced cell migration was calculated by the following formula, where [A] is the number of migrated cells in the presence of both fractalkine and the test compound, [B] is the number of migrated cells in the presence of fractalkine and in the absence of the test compound, and [C] is the number of migrated cells in the absence of both fractalkine and the test compound; the 50% inhibitory concentration (IC50) was calculated based on the inhibitory rate. Inhibitory rate (%)=[1−{(A−C)/(B−C)}]×100 (2) Results

IC50 [nM] | Compound
31 | Cc1cccc(Cl)c1CN1C[C@H](C)[C@](CC(=O)O)(C(=O)NC2CCN(CC3=CCCC3)CC2)C1 [Example 8, 2-[(3S,4R)-1-[(2-Chloro-6-methylphenyl)methyl]-3-{[(1-cyclopent-1-en-1-ylmethyl)piperidin-4-yl]carbamoyl}-4-methylpyrrolidin-3-yl]acetic acid]
6 | C[C@H]1CN(Cc2c(Cl)cccc2Cl)C[C@@]1(CC(=O)O)C(=O)NC1CCN(CC2=CCCCC2)CC1 [Example 11, 2-[(3S,4R)-3-{[(1-Cyclohex-1-en-1-ylmethyl)piperidin-4-yl]carbamoyl}-1-[(2,6-dichlorophenyl)methyl]-4-methylpyrrolidin-3-yl]acetic acid]
16 | C[C@H]1CN(Cc2c(Cl)cccc2Cl)C[C@@]1(CC(=O)O)C(=O)N[C@H]1CCN(CC2=CCCCC2)C1 (relative stereo) [Example 9]
